US20150374673A1, “Combination Therapy for the Treatment of Nosocomial Pneumonia” (priority 2013, published 2015)
Read-outs that look alike come from different tables or passages of the source.

Columns and labels:
[1] = test system: K. pneumoniae; test: MIC, CLSI broth microdilution in CAMHB with 0-10% pulmonary surfactant (avibactam fixed at 4 μg/mL in combination); assay type: cell-based; details: Klebsiella pneumoniae
Procedure: (§1) The bacterial strains used in this testing were part of the microbiological culture collection housed at AstraZeneca R&D Boston (AstraZeneca Research Collection, designated ARC). The panel of bacterial isolates used for this testing was comprised of five CLSI QC reference strains and the remainder were either recent clinical isolates expressing β-lactamases or isolates from the primary bacterial screening panels.
(§2) MIC values were determined using the CLSI broth microdilution methodology with slight variation. Stock compound mother plates were prepared and used to spot 2 μL aliquots of serial 2-fold drug dilutions to columns 1-11 of 96-well daughter plates using a Perkin-Elmer MiniTrak™ MultiPosition dispenser. […] An inoculum volume of 100 μL (5×10E^5 CFU/mL) in CAMHB containing 0, 1, 2.5, 5, or 10% pulmonary surfactant was added using a multichannel Finnpipette® to each well of the 96-well plate.
(§3) The minimum inhibitory concentration (MIC) values against each organism/drug combination were determined using broth microdilution methodology according to CLSI guidelines. The recommended reference bacterial strains for each test group and reference compounds were incorporated into each test. For Gram-negatives, the reference bacterial strains were Escherichia coli ATCC 25922, E. coli ATCC 35218, Klebsiella pneumoniae ATCC 700603, and Pseudomonas aeruginosa ATCC 27853. Staphylococcus aureus ATCC 29213 was the reference bacterial strain for the Gram-positives.
(§4) MIC values for individual isolates were read visually. The MICs for each compound or combination in pulmonary surfactant was compared to the compound or combination tested in CAMHB alone.

[2] = test system: P. aeruginosa; test: as above; assay type: cell-based, Pseudomonas aeruginosa
Procedure: as §1, §2, §3, §4

[3] = Protein binding, equilibrium dialysis chamber, LC-MS/MS; assay type: in vitro ADME
Procedure: Blood was separated from plasma using a cooled centrifuge. Samples were split and stored at −80° C.

NC(=O)[C@@H]1CC[C@@H]2CN1C(=O)N2OS(=O)(=O)[O-].[Na+] [avibactam, [(2S,5R)-2-carbamoyl-7-oxo-1,6-diazabicyclo[3.2.1]octan-6-yl]hydrogen sulfate]
>64 µg/mL: MIC ([2]; P. aeruginosa ARC3 (CLSI QC strain, ATCC 27853), surfactant 1%) | MIC ([2]; P. aeruginosa ARC3 (CLSI QC strain, ATCC 27853), surfactant 2.5%) | MIC ([2]; P. aeruginosa ARC3 (CLSI QC strain, ATCC 27853), surfactant 5%) | MIC ([2]; P. aeruginosa ARC3 (CLSI QC strain, ATCC 27853), surfactant 10%) | MIC ([2]; P. aeruginosa ARC545 (PAO1), surfactant 1%) | MIC ([2]; P. aeruginosa ARC545 (PAO1), surfactant 2.5%) | MIC ([2]; P. aeruginosa ARC545 (PAO1), surfactant 5%) | MIC ([2]; P. aeruginosa ARC545 (PAO1), surfactant 10%) | MIC ([2]; P. aeruginosa ARC2532 (Clinical isolate), surfactant 0%) | MIC ([2]; P. aeruginosa ARC2532 (Clinical isolate), surfactant 1%) | MIC ([2]; P. aeruginosa ARC2532 (Clinical isolate), surfactant 2.5%) | MIC ([2]; P. aeruginosa ARC2532 (Clinical isolate), surfactant 5%) | MIC ([2]; P. aeruginosa ARC2532 (Clinical isolate), surfactant 10%) | MIC ([2]; P. aeruginosa ARC2761 (Clinical isolate), surfactant 1%) | MIC ([2]; P. aeruginosa ARC2761 (Clinical isolate), surfactant 2.5%) | MIC ([2]; P. aeruginosa ARC2761 (Clinical isolate), surfactant 5%) | MIC ([2]; P. aeruginosa ARC2761 (Clinical isolate), surfactant 10%) | MIC ([2]; P. aeruginosa ARC3508 (derepressed AmpC), surfactant 0%) | MIC ([2]; P. aeruginosa ARC3508 (derepressed AmpC), surfactant 1%) | MIC ([2]; P. aeruginosa ARC3508 (derepressed AmpC), surfactant 2.5%) | MIC ([2]; P. aeruginosa ARC3508 (derepressed AmpC), surfactant 5%) | MIC ([2]; P. aeruginosa ARC3508 (derepressed AmpC), surfactant 10%)
> 64 µg/mL: MIC ([2]; Pseudomonas aeruginosa, ATCC27853, P. aeruginosa ARC3 (CLSI QC strain, ATCC 27853), surfactant 0%, read-out: MIC) | MIC ([2]; Pseudomonas aeruginosa, P. aeruginosa ARC545 (PAO1), surfactant 0%, read-out: MIC) | MIC ([2]; Pseudomonas aeruginosa, P. aeruginosa ARC2761 (Clinical isolate), surfactant 0%, read-out: MIC)
16 µg/mL: MIC ([1]; K. pneumoniae ARC3713 (CTX-M-15, OXA-1/30, SHV-5, TEM-1), surfactant 0%) | MIC ([1]; K. pneumoniae ARC3713 (CTX-M-15, OXA-1/30, SHV-5, TEM-1), surfactant 1%) | MIC ([1]; K. pneumoniae ARC3713 (CTX-M-15, OXA-1/30, SHV-5, TEM-1), surfactant 2.5%) | MIC ([1]; K. pneumoniae ARC3713 (CTX-M-15, OXA-1/30, SHV-5, TEM-1), surfactant 5%) | MIC ([1]; K. pneumoniae ARC3713 (CTX-M-15, OXA-1/30, SHV-5, TEM-1), surfactant 10%)
8 µg/mL: MIC ([1]; K. pneumoniae ARC2929 (KPC-3), surfactant 0%) | MIC ([1]; K. pneumoniae ARC2929 (KPC-3), surfactant 1%) | MIC ([1]; K. pneumoniae ARC2929 (KPC-3), surfactant 2.5%) | MIC ([1]; K. pneumoniae ARC2929 (KPC-3), surfactant 5%) | MIC ([1]; K. pneumoniae ARC2929 (KPC-3), surfactant 10%) | MIC ([1]; K. pneumoniae ARC2945 (KPC-2, SHV-11, TEM-1, OXA-9), surfactant 0%) | MIC ([1]; K. pneumoniae ARC2945 (KPC-2, SHV-11, TEM-1, OXA-9), surfactant 1%) | MIC ([1]; K. pneumoniae ARC2945 (KPC-2, SHV-11, TEM-1, OXA-9), surfactant 2.5%) | MIC ([1]; K. pneumoniae ARC2945 (KPC-2, SHV-11, TEM-1, OXA-9), surfactant 5%) | MIC ([1]; K. pneumoniae ARC2945 (KPC-2, SHV-11, TEM-1, OXA-9), surfactant 10%)
64 µg/mL: MIC ([1]; K. pneumoniae ARC2528 (Clinical isolate), surfactant 0%) | MIC ([1]; K. pneumoniae ARC2528 (Clinical isolate), surfactant 1%) | MIC ([1]; K. pneumoniae ARC2528 (Clinical isolate), surfactant 2.5%) | MIC ([1]; K. pneumoniae ARC2528 (Clinical isolate), surfactant 5%)
0.92: fraction unbound [3]
32 µg/mL: MIC ([1]; K. pneumoniae ARC2528 (Clinical isolate), surfactant 10%)
